We go through four compounds from patent publication EP0044212B1, “Herbicidal o-alkylsulfonyloxy- and o-alkylsulfonylamino-benzenesulfonamides” (E.I. DU PONT DE NEMOURS AND COMPANY, priority 1980, dated 1982).

One assay has as its system Cucumber. Nature of the assay: Test C pre-emergence on Fallsington silt loam soil. The note with it: 0.03 kg/ha, 28 days. Format: in vivo, cucumbers. From the text: (§1) The high herbicidal activity of two of the compounds from within the scope of the invention is evident from the results obtained in this test. The experiment concerned pre-emergence applications on soil. The containers used were 25 cm diameter plastic pots filled with Fallsington silt loam. One set of pots was planted to weeds, the seeds of which were uniformly mixed with the top 1.2 cm layer of soil. The species selected were: johnsongrass (Sorghum halepense), barnyardgrass (Echinochloa crusgalli), crabgrass (Digitaria sanguinalis), giant foxtail (Setaria faberii), velvetleaf (Abutilon theophrasti), jimsonweed (Datura stramonium), mustard (Brassica arvensis), and pigweed (Amaranthus retroflexus). Another set of pots were planted to the following crops with from one to four species per pot: corn (planting depth 3.7 cm), cotton, soybeans, sunflower, Clinton oats, wheat, Black Valentine beans, rice, sorghum, peas, flax, and peanuts (all at 2.5 cm depth), cucumbers, cabbage, alfalfa, safflower, sugarbeets, tomato, spinach, barley, and Kentucky bluegrass (all at 1.2 cm depth). Immediately after planting, the test chemical was applied to the soil surfaces dissolved in a non-phytotoxic solvent. One pot from the weed phase and one of each of the crop species were left untreated for the purpose of comparison. […]

In another assay the test system is Broadleaves. Nature of the assay: Test C pre-emergence on Fallsington silt loam soil. The note with it: 28 days. Format: in vivo, velvetleaf, jimsonweed, mustard, pigweed.
Excerpt: as §1

A further assay deals with Oats. Nature of the assay: Test C pre-emergence on Fallsington silt loam soil. Type of assay: in vivo, Clinton oats. The note with it: 0.03 kg/ha, 28 days.
Excerpt: as §1

The next assay deals with Velvetleaf. Nature of the assay: Test F over-the-top soil/foliage treatment. Type of assay: in vivo, Abutilon theophrasti. The note with it: soil/foliage spray, ~14 days. As to the method:
The test chemicals, dissolved in a non-phytotoxic solvent, were applied in an overall spray to the foliage and surrounding […] of selected plant species. […] Approximately fourteen days after treatment, all species were visually compared to untreated controls and rated for response to treatment.
All plant species were seeded in Woodstown sandy loam soil and grown in a greenhouse. The following species were grown in soil contained in plastic pots (25 cm diameter by 13 cm deep): soybeans, cotton, alfalfa, corn, rice, wheet, sorghum, velvetleaf (Abutilon theophrasti), sesbania (Sesbania exaltata), Cassia (Cassia tora), morningglory (Ipomoea hederacea), jimsonweed (Datura stramonium), cocklebur (Xanthium pensylvanicum), crabgrass (Digitaria spp.), nutsedge (Cyperus rotundus), barnyardgrass (Echinochloa crusgalli), giant foxtail (Setaria faberii) and wild oats (Avena fatua). The following species were grown in soil in a paper cup (12 cm diameter by 13 cm deep): sunflower, sugarbeets, and mustard. All plants were sprayed approximately 14 days after planting.

The next assay concerns soybeams. In words: Crop selectivity statement (greenhouse tests). The note with it: summary statement. Format: in vivo. The source says: (§2) The activity of the compounds of formula I was investigated in a number of greenhouse tests.
A further assay deals with Soybeans. Nature of the assay: Test G broadleaf herbicidal properties, overall spray. Format: in vivo, soybean. The note with it: 0.015 kg/ha, 22 days after treatment. As to the method: Approximately 12 soybean plants were grown in a 25 cm. diameter plastic pot. In another pot of equal size the following broadleaf plant species were grown: sugarbeets, velvetleaf, Sesbania, Cassia, mustard, morningglory, alfalfa, jimsonweed, and cocklebur. The plant foliage and surrounding soil were treated with the test chemical dissolved in a non-phytotoxic solvent as an overall spray at the rate of 0.015 kg/ha, when the plants were 17 days old. Visual ratings of herbicidal effects were made 22 days after treatment utilizing the rating system described for Test A.

The test system of another assay is Quackgrass. Nature of the assay: Test D pre-/post-emergence weed control in cereals. The conditions noted are these: 20 days. Type of assay: in vivo, Agropyron repens. The source says: (§3) Two ten-inch in diameter plastic pans lined with polyethylene liners were filled with prepared Fallsington slit loam soil. One pan was planted with seeds of wheat (Triticum aestivum), barley (Hordeum vulgarel, wild oats (Avena fatua), downy brome (Bromus tectorum), cheatgrass (Bromus secalinus), blackgrass (Alopecurus myosuroides), annual bluegrass (Poa annual, green foxtail (Setaria viridis), quack grass (Agropyron repens), Italian ryegrass (Lolium multiflorum) and ripgut brome (Bromus rigidus). The other pan was planted with seeds of Russian thistle (Salsola kali), tansy mustard (Descuraina pinnata), smartweed (Polygonum pensylvanicum), tumble mustard (Sisymbrium altissium) kochia (Kochia scoparia), shepherd's purse (Capsella bursa-pastoris), Matricaria inodora, black nightshade (Solanum nigrum), yellow rocket (Barbarea vulgaris), wild mustard (Brassica kaber) and wild buckwheat (Polygonum convolvulus). The above two pans were treated pre-emergence. At the same time two pans in which the above plant species were growing were treated post-emergence. Plant height at the time of treatment ranged from 1-15 cm depending on plant species.
(§4) The compounds applied were diluted with a non-phytotoxic solvent and sprayed over-the-top of the pans. An untreated control and a solvent alone control were included for comparison. All treatments were maintained in the greenhouse for 20 days at which time the treatments were compared to the controls and the effects visually rated. The recorded data, presented in Table D, indicate that certain compounds from within the scope of the invention have utility for pre- and/or post-emergence weed control in cereal crops such as wheat and barley.

For the next assay, the system named is Cheatgrass. Nature of the assay: Test D pre-/post-emergence weed control in cereals. Format: in vivo, Bromus secalinus. The note with it: 20 days.
Excerpt: as §3, §4

The test system of a further assay is Yellow Rocket. In words: Test D pre-/post-emergence weed control in cereals. Type of assay: in vivo, Barbarea vulgaris. The conditions noted are these: 0.06 kg/ha, 20 days.
Excerpt: as §3, with “Plant height at the time of treatment ranged from 1-15 cm depending on plant species.” left out
(§5) The compounds applied were diluted with a non-phytotoxic solvent and sprayed over-the-top of the pans. […] The recorded data, presented in Table D, indicate that certain compounds from within the scope of the invention have utility for pre- and/or post-emergence weed control in cereal crops such as wheat and barley.

In another assay the test system is Wild Oats. Nature of the assay: Test D pre-/post-emergence weed control in cereals. The note with it: 20 days. Type of assay: in vivo, Avena fatua.
Excerpt: as §3, §4

Another assay relates to Tansy Mustard. In words: Test D pre-/post-emergence weed control in cereals. The conditions noted are these: Pre-Emergence; 0.015 kg/ha; 20 days. Type of assay: in vivo, Descuraina pinnata.
Excerpt: as §3, with “Plant height at the time of treatment ranged from 1-15 cm depending on plant species.” left out
as §5

A further assay has as its system Russian Thistle. In words: Test D pre-/post-emergence weed control in cereals. Format: in vivo, Salsola kali. The note with it: 20 days.
Excerpt: as §3, §4

A further assay has as its system rice and corn. In words: Crop selectivity statement (greenhouse tests). Format: in vivo. The note with it: summary statement.
Excerpt: as §2

Another assay relates to Barley. In words: Test D pre-/post-emergence weed control in cereals. Format: in vivo, Hordeum vulgarel. The note with it: 20 days.
Excerpt: as §3, §4

Another assay deals with Italian Ryegrass. In words: Test D pre-/post-emergence weed control in cereals. Format: in vivo, Lolium multiflorum. The conditions noted are these: 20 days.
Excerpt: as §3, §4

A further assay deals with Tumble Mustard. In words: Test D pre-/post-emergence weed control in cereals. Format: in vivo, Sisymbrium altissium. The note with it: 20 days.
Excerpt: as §3, §4

Take `COc1cc(OC)nc(NC(=O)NS(=O)(=O)c2ccccc2OS(C)(=O)=O)n1` [Compound 1, N-[(4,6-Dimethoxypyrimidin-2-yl)aminocarbonyl]-2-hydroxybenzenesulfonamide, methanesulfonate]: in the assay with Cucumber, the Cucumber response rating amounted to 5G. For the same compound, the Broadleaves response rating is reported as 3G with Broadleaves (0.0035 kg/ha) and 4G with Broadleaves (0.0075 kg/ha). This compound also had an Oats response rating in the assay on Oats of 4G.

For the compound `Cc1cc(C)nc(NC(=O)NS(=O)(=O)c2ccccc2OS(C)(=O)=O)n1` [Compound 3, N-[(4,6-dimethylpyrimidin-2-yl)aminocarbonyl]-2-hydroxybenzenesulfonamide, methanesulfonate], the Velvetleaf response rating was 7G in the assay with Velvetleaf (0.003 kg/ha) and 5G in the assay with Velvetleaf (0.015 kg/ha).

As to `CCCS(=O)(=O)Oc1ccccc1S(=O)(=O)NC(=O)Nc1nc(C)nc(OC)n1` [Compound 39, 2-hydroxy-N-[(4-methoxy-6-methyl-1,3,5-triazin-2-yl)aminocarbonyl]benzenesulfonamide, 1-propanesulfonate], the selectivity on soybeams result with soybeams is recorded as “shows selectivity on soybeams”. The Soybeans response rating in the assay with Soybeans worked out at 0.

`CCCS(=O)(=O)Oc1ccccc1S(=O)(=O)NC(=O)Nc1nc(OC)cc(OC)n1` [Compound 36, N-[(4,6-dimethoxypropimidin-2-yl)aminocarbonyl]-2-hydroxybenzenesulfonamide, 1-propanesulfonate]: the Quackgrass response rating was found to be 0 with Quackgrass (Post-Emergence, 0.015 kg/ha); 0 in the assay with Quackgrass (Post-Emergence, 0.06 kg/ha); 0 in the assay with Quackgrass (Pre-Emergence, 0.015 kg/ha); 2G in the assay on Quackgrass (Pre-Emergence, 0.06 kg/ha). Also, the Cheatgrass response rating with Cheatgrass (Post-Emergence, 0.015 kg/ha) amounted to 1G; in the assay with Cheatgrass (Pre-Emergence, 0.015 kg/ha) it was 7G; in the assay with Cheatgrass (Pre-Emergence, 0.06 kg/ha), 10C. Moreover, the “Yellow Rocket response rating” value with Yellow Rocket (Post-Emergence) and in the assay with Yellow Rocket (Pre-Emergence) was 10C in each case. Moreover, the “Wild Oats response rating” value in the assay on Wild Oats (Post-Emergence, 0.015 kg/ha) came out at 0; in the assay on Wild Oats (Post-Emergence, 0.06 kg/ha), 0; with Wild Oats (Pre-Emergence, 0.015 kg/ha) it was 0; in the assay with Wild Oats (Pre-Emergence, 0.06 kg/ha), 0. Moreover, the “Tansy Mustard response rating” value with Tansy Mustard is on record as 2G. The “Russian Thistle response rating” value in the assay on Russian Thistle (Post-Emergence, 0.015 kg/ha) stood at 0; in the assay on Russian Thistle (Post-Emergence, 0.06 kg/ha), 2G; with Russian Thistle (Pre-Emergence, 0.015 kg/ha) it was 0; with Russian Thistle (Pre-Emergence, 0.06 kg/ha), 1G. Further, the “selectivity on rice and corn” value in the assay with rice and corn is “shows selectivity on rice and corn”. Besides, the Barley response rating came out at 0 with Barley (Post-Emergence, 0.015 kg/ha); 0 in the assay with Barley (Post-Emergence, 0.06 kg/ha); 0 in the assay with Barley (Pre-Emergence, 0.015 kg/ha); 0 in the assay with Barley (Pre-Emergence, 0.06 kg/ha). Moreover, the “Italian Ryegrass response rating” value in the assay on Italian Ryegrass (Post-Emergence, 0.015 kg/ha) is given as 0; in the assay with Italian Ryegrass (Post-Emergence, 0.06 kg/ha) it was 0; in the assay with Italian Ryegrass (Pre-Emergence, 0.015 kg/ha), 1G; with Italian Ryegrass (Pre-Emergence, 0.06 kg/ha) it was 3G. Besides, the “Tumble Mustard response rating” value in the assay on Tumble Mustard (Post-Emergence, 0.015 kg/ha) worked out at 10C; with Tumble Mustard (Post-Emergence, 0.06 kg/ha), 10C; in the assay on Tumble Mustard (Pre-Emergence, 0.015 kg/ha), 5G.
